Assay [1] concerns the target T1, human constitutive 20S proteasome (Homo sapiens, UniProt P25787+P60900).
T1 construct: purchased Boston Biochem, Inc. (Cambridge, MA)
The experiment in a line: Fluorogenic peptide degradation 20S proteasome activity assay. The following applies: for AC200 (doubling of 20S activity): combination of the three fluorogenic peptide substrates (CT-L, T-L, Casp-L). In kind it is biochemical. From the text:
These substrates were a chymotryptic-like (CT-L), a trypsin-like (T-L) and a caspase-like (Casp-L) substrate, one for each of the catalytic sites of the proteasome. It has been shown that the proteasome’s active sites allosterically regulate each other in the presence of their individual substrates. Therefore, a combination of the three probes to represent the overall activity of a 20S activator more accurately in a system in which all catalytic sites are interacting.
The 20S activity of astemizoles and N-acylastemizole (compound 2) was further assessed in the fluorogenic peptide assay, using each of the individual substrates as well as the combination of the three (FIG. 1B). […] The N-acylated analog achieved similar max fold increases for each substrate/combination (>800% increase over vehicle).
Activity assays were carried out in a 100 µL reaction volume. Different concentrations (1-80 µM) of test compounds were added to a black flat/clear bottom 96-well plate containing 1 nM of human constitutive 20S proteasome, in 50 mM Tris-HCl at pH 7.8, 100 mM NaCl and allowed to incubate for 15 min at 37° C. Fluorogenic substrates were then added and the enzymatic activity measured at 37° C. on a SpectraMax M5e spectrometer by measuring the change in fluorescence unit per minute for 1 hour at 380-460 nm. The fluorescence units for the vehicle control were set at a 100%, and the ratio of drug-treated sample set to that of vehicle control was used to calculate the fold change in enzymatic activity. The fluorogenic substrates used were one of the following: Suc-LLVY-AMC (CT-L activity, 20 µM), Z-LLE-AMC (Casp-L activity, 20 µM), Boc-LRR-AMC (T-L activity, 40 µM) or a combination of the three substrates each at 6.67 µM.

For assay [2], the system named is MYC-mediated gene transcription. Description: Myc reporter assay (luciferase). In kind it is cell-based. The following applies: Homo sapiens, HCT-116; HCT116 Myc-Luc reporter cells, 16 hours, n=3; read-out: EC50 for inhibition of c-MYC. The method, then: (§1) Firefly luminescence was measured using the One-Step Luciferase Assay System from BPS Biosciences.
as §1
Background: In a reporter assay the amount or activity of a reporter protein is the signal.

The subject of a further assay is NF-kB transcription. The experiment in a line: NF-κB reporter assay (luciferase). The assay is classed as cell-based. The following applies: Homo sapiens; HCT-116 NF-kappaB-luc reporter cells, TNF-alpha 2 ng/mL, 16 hours, n=3; read-out: EC50 for inhibition of NF-kB transcription. As for the experimental part: as §1

The structures appear in SMILES notation.

With `COc1ccc(CCN2CCC(Nc3nc4ccccc4n3Cc3ccc(F)cc3)CC2)cc1` [Compound 1, astemizole, reference compound], in assay [1] (CT-L, T-L and Casp-L substrates), the “activation of catalytic sites of the 20S proteasome” value was “activates all three catalytic sites”. The “AC200 (doubling of 20S activity)” value in assay [1] turned out to be 3.3 µM.
As for `COc1ccc(CC(=O)N2CCC(Nc3nc4ccccc4n3Cc3ccc(F)cc3)CC2)cc1` [Compound 2, 1-(4-((1-(4-fluorobenzyl)-1H-benzo[d]imidazol-2-yl)amino)piperidin-1-yl)-2-(4-methoxyphenyl)ethan-1-one], the “AC200 (doubling of 20S activity)” value in assay [1] worked out at 3.9 µM. In assay [1] (each substrate/combination), the “max fold increase (increase over vehicle)” value is reported as over 800%. For the same compound, the EC50 (in general, the concentration giving half of the maximal effect) in assay [2] was determined as 19 µM; in the assay with NF-kB transcription it was 18 µM.

(Values after patent US20230295116A1, “PROTEASOME ENHANCERS AND USES THEREOF” (Board of Trustees of Michigan State University, priority 2020, published 2023).)
